Earlier results on 4 molecules are cited in US11648313B2, “Multimodal therapy for cancer cell destruction” (Southeast Missouri State University, priority 2015, dated 2023).

SMILES strings stand for the structures.

One data set deals with FAK (Homo sapiens, UniProt Q05397).
The test system of a further data set is NF-kB. Conditions: neuroblastoma cells.

Chain of FAK (Q05397 whole entry): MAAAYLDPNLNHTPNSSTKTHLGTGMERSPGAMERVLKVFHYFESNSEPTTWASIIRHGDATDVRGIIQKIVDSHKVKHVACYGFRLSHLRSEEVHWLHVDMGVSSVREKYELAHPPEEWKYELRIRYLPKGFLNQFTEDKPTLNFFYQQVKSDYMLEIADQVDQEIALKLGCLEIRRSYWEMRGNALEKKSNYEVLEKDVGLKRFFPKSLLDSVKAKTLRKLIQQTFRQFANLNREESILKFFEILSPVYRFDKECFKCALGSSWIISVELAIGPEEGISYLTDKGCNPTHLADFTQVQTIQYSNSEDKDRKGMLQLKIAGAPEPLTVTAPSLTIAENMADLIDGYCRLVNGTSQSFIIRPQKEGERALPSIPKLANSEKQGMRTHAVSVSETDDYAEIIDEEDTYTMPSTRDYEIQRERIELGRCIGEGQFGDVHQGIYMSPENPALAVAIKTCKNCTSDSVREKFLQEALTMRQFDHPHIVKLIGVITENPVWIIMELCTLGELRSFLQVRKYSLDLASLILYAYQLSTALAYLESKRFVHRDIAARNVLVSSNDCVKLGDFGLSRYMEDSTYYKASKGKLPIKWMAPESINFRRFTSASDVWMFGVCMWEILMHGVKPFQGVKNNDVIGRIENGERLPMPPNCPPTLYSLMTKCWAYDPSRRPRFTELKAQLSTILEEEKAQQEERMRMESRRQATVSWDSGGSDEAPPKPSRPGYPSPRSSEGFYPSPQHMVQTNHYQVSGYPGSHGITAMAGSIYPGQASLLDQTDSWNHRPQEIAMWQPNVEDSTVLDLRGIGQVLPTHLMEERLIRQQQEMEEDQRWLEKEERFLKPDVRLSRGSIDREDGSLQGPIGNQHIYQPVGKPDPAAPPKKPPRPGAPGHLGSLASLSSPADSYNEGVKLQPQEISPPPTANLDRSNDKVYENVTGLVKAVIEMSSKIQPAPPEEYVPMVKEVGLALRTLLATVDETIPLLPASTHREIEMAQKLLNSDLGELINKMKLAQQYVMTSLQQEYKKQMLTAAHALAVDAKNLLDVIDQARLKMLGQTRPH

In the case of `Cl.Cl.Cl.Cl.Nc1cc(N)c(N)cc1N` [Y15], the water solubility entry is recorded as “adequate water solubility”. At FAK, the “effect of FAK inhibition on cell survival, apoptosis, cell cycle” value was “decreased cell survival, increased apoptosis, and G2 cell cycle arrest”.
Regarding `CNC(=O)c1ccccc1Nc1nc(Nc2ccc(N3CCOCC3)cc2OC)ncc1Cl` [NVP-TAE 226], the water solubility entry is listed as “adequate water solubility”. The “effect of FAK inhibition on cell survival, apoptosis, cell cycle” value on FAK is “decreased cell survival, increased apoptosis, and G2 cell cycle arrest”.
As for `COc1cccc2c1C(=O)c1c(O)c3c(c(O)c1C2=O)C[C@@](O)(C(=O)CO)C[C@@H]3O[C@H]1C[C@H](N)[C@H](O)[C@H](C)O1` [doxorubicin], the NF-kB activation result in the data set with NF-kB is recorded as “trigger NF-kB activation”.
With `COc1cc([C@@H]2c3cc4c(cc3[C@@H](O[C@@H]3O[C@@H]5CO[C@@H](C)O[C@H]5[C@H](O)[C@H]3O)[C@H]3COC(=O)[C@H]23)OCO4)cc(OC)c1O` [VP16], in the data set with NF-kB, the NF-kB activation entry was “trigger NF-kB activation”.
